ChEMBL document CHEMBL1201861, “Genomics of Drug Sensitity in Cancer screening data, Wellcome Trust Sanger Institute”

Assays:
[1] = tested on: COLO-741; experiment: cells; format: functional, cell-based; details: Homo sapiens
Description: SANGER: Inhibition of human COLO-741 cell growth in a cell viability assay.

[2] = tested on: DMS-53; experiment: cells; format: functional, cell-based; details: Homo sapiens;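 also: cell viability assay measuring growth inhibition of human DMS-53 cells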
Description: SANGER: Inhibition of human DMS-53 cell growth in a cell viability assay.

[3] = tested on: EW-7; experiment: SANGER: Inhibition of human EW-7 cell growth in a cell viability assay.; format: functional, cell-based
[4] = tested on: GMS-10; experiment: cells; format: functional, cell-based; details: Homo sapiens;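 also: growth inhibition of GMS-10 cells, read out as cell viability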
Description: SANGER: Inhibition of human GMS-10 cell growth in a cell viability assay.

[5] = tested on: HCC1143; experiment: cells; format: functional, cell-based; details: Homo sapiens;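 also: growth inhibition of human HCC1143 cells, read out with a cell viability assay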
Description: SANGER: Inhibition of human HCC1143 cell growth in a cell viability assay.

[6] = tested on: HCC1419; experiment: cells; format: functional, cell-based; details: Homo sapiens;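 also: growth inhibition of human HCC1419 cells, read out as cell viability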
Description: SANGER: Inhibition of human HCC1419 cell growth in a cell viability assay.

[7] = tested on: HCC1569; experiment: cells; format: functional, cell-based; details: Homo sapiens;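 also: growth inhibition of human HCC1569 cells, read out with a cell viability assay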
Description: SANGER: Inhibition of human HCC1569 cell growth in a cell viability assay.

[8] = tested on: HSC-2; experiment: cells; format: functional, cell-based; details: Homo sapiens;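 also: growth inhibition of human HSC-2 cells, read out by a cell viability assay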
Description: SANGER: Inhibition of human HSC-2 cell growth in a cell viability assay.

[9] = tested on: HT-3; experiment: cells; format: functional, cell-based; details: Homo sapiens;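 also: growth inhibition measured with a cell viability readout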
Description: SANGER: Inhibition of human HT-3 cell growth in a cell viability assay.

[10] = tested on: IGROV-1; experiment: cells; format: functional, cell-based; details: Homo sapiens;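 also: reduction of IGROV-1 cell growth, read out with a viability assay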
Description: SANGER: Inhibition of human IGROV-1 cell growth in a cell viability assay.

[11] = tested on: IMR-5; experiment: cells; format: functional, cell-based, Homo sapiens; details: Homo sapiens, IMR-5; read-out: IC50;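 also: growth inhibition of human IMR-5 cells, read out with a cell viability assay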
Description: SANGER: Inhibition of human IMR-5 cell growth in a cell viability assay.

[12] = tested on: KP-4; experiment: cells; format: functional, cell-based; details: Homo sapiens;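 also: human KP-4 cells, with growth inhibition read out through a cell viability assay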
Description: SANGER: Inhibition of human KP-4 cell growth in a cell viability assay.

[13] = tested on: MDA-MB-175-VII; experiment: cells; format: functional, cell-based; details: Homo sapiens
[14] = tested on: MDA-MB-468; experiment: cells; format: functional, cell-based; details: Homo sapiens
Description: SANGER: Inhibition of human MDA-MB-468 cell growth in a cell viability assay.

[15] = tested on: MFE-296; experiment: SANGER: Inhibition of human MFE-296 cell growth in a cell viability assay.; format: functional, cell-based
[16] = tested on: MKN-1; experiment: cells; format: functional, cell-based; details: Homo sapiens;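 also: growth inhibition of human MKN1 cells, read out by a cell viability measurement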
Description: SANGER: Inhibition of human MKN1 cell growth in a cell viability assay.

[17] = tested on: NCI-H1651; experiment: cells; format: functional, cell-based; details: Homo sapiens;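 also: Read-out is a cell viability assay, with IC50 expressing inhibition of NCI-H1651 cell growth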
Description: SANGER: Inhibition of human NCI-H1651 cell growth in a cell viability assay.

[18] = tested on: NCI-H1694; experiment: cells; format: functional, cell-based, Homo sapiens; details: Homo sapiens, NCI-H1694;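 also: cell viability assay measuring inhibition of growth in human NCI-H1694 cells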
Description: SANGER: Inhibition of human NCI-H1694 cell growth in a cell viability assay.

[19] = tested on: NCI-H1734; experiment: cells; format: functional, cell-based; details: Homo sapiens;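 also: growth inhibition of human NCI-H1734 cells, read out with a cell viability assay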
Description: SANGER: Inhibition of human NCI-H1734 cell growth in a cell viability assay.

[20] = tested on: NCI-H1792; experiment: cells; format: functional, cell-based; details: Homo sapiens;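 also: growth inhibition of human NCI-H1792 cells, read out as cell viability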
Description: SANGER: Inhibition of human NCI-H1792 cell growth in a cell viability assay.

[21] = tested on: NCI-H2227; experiment: cells; format: functional, cell-based; details: Homo sapiens;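 also: growth inhibition of the human cell line, read out with a cell viability assay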
Description: SANGER: Inhibition of human NCI-H2227 cell growth in a cell viability assay.

[22] = tested on: NCI-H2347; experiment: cells; format: functional, cell-based; details: Homo sapiens;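 also: growth inhibition of the cell line, read out with a cell viability assay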
Description: SANGER: Inhibition of human NCI-H2347 cell growth in a cell viability assay.

[23] = tested on: NCI-H2452; experiment: cells; format: functional, cell-based; details: Homo sapiens;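 also: growth inhibition of NCI-H2452 cells, read out with a cell viability assay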
Description: SANGER: Inhibition of human NCI-H2452 cell growth in a cell viability assay.

[24] = tested on: NCI-H28; experiment: cells; format: functional, cell-based; details: Homo sapiens;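 also: growth inhibition of human NCI-H28 cells, read out as cell viability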
Description: SANGER: Inhibition of human NCI-H28 cell growth in a cell viability assay.

[25] = tested on: NCI-H650; experiment: cells; format: functional, cell-based; details: Homo sapiens;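 also: growth inhibition of NCI-H650 cells, read out by a viability assay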
Description: SANGER: Inhibition of human NCI-H650 cell growth in a cell viability assay.

[26] = tested on: NCI-H716; experiment: cells; format: functional, cell-based, Homo sapiens; details: Homo sapiens, NCI-H716;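 also: growth inhibition of human NCI-H716 cells, measured by a cell viability assay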
Description: SANGER: Inhibition of human NCI-H716 cell growth in a cell viability assay.

[27] = tested on: NCI-H810; experiment: cells; format: functional, cell-based; details: Homo sapiens;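 also: IC50 reflects inhibition of cancer cell line growth, read out with a cell viability assay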
Description: SANGER: Inhibition of human NCI-H810 cell growth in a cell viability assay.

[28] = tested on: NCI-H889; experiment: cells; format: functional, cell-based, Homo sapiens; details: Homo sapiens, NCI-H889;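 also: cell growth inhibition of the cell line, read out with a viability assay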
Description: SANGER: Inhibition of human NCI-H889 cell growth in a cell viability assay.

[29] = tested on: OVCAR-3; experiment: cells; format: functional, cell-based; details: Homo sapiens;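 also: growth inhibition of human OVCAR-3 cells, determined by a cell viability assay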
Description: SANGER: Inhibition of human OVCAR-3 cell growth in a cell viability assay.

[30] = tested on: PC-3; experiment: cells; format: functional, cell-based; details: Homo sapiens;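 also: cell viability assay measuring growth inhibition of PC-3 cells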
Description: SANGER: Inhibition of human PC-3 cell growth in a cell viability assay.

[31] = tested on: RO82-W-1; experiment: cells; format: functional, cell-based; details: Homo sapiens;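 also: growth inhibition of human RO82-W-1 cells, measured with a cell viability assay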
Description: SANGER: Inhibition of human RO82-W-1 cell growth in a cell viability assay.

[32] = tested on: RT-112; experiment: cells; format: functional, cell-based; details: Homo sapiens
Description: SANGER: Inhibition of human RT-112 cell growth in a cell viability assay.

[33] = tested on: RT-4; experiment: SANGER: Inhibition of human RT4 cell growth in a cell viability assay.; format: functional, cell-based
[34] = tested on: SCC-4; experiment: cells; format: functional, cell-based; details: Homo sapiens;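 also: growth inhibition of human SCC-4 cells, read out as cell viability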
Description: SANGER: Inhibition of human SCC-4 cell growth in a cell viability assay.

[35] = tested on: SK-CO-1; experiment: cells; format: functional, cell-based; details: Homo sapiens;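 also: growth inhibition of SK-CO-1 cells, determined by a viability readout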
Description: SANGER: Inhibition of human SK-CO-1 cell growth in a cell viability assay.

[36] = tested on: SK-MEL3; experiment: cells; format: functional, cell-based, SK-MEL-3; details: Homo sapiens;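 also: growth inhibition of human SK-MEL-3 cells, read out with a cell viability assay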
Description: SANGER: Inhibition of human SK-MEL-3 cell growth in a cell viability assay.

[37] = tested on: SNU-449; experiment: cells; format: functional, cell-based; details: Homo sapiens
Description: SANGER: Inhibition of human SNU-449 cell growth in a cell viability assay.

[38] = tested on: T-24; experiment: cells; format: functional, cell-based; details: Homo sapiens;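 also: growth inhibition of T-24 cells, read out with a cell viability assay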
Description: SANGER: Inhibition of human T-24 cell growth in a cell viability assay.

[39] = tested on: T84; experiment: cells; format: functional, cell-based; details: Homo sapiens;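 also: growth inhibition measured with a cell viability readout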
Description: SANGER: Inhibition of human T84 cell growth in a cell viability assay.

[40] = tested on: 647-V; experiment: cells; format: functional, cell-based; details: Homo sapiens;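 also: growth inhibition of 647-V cells, read out with a cell viability assay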
Description: SANGER: Inhibition of human 647-V cell growth in a cell viability assay.

[41] = tested on: A 172; experiment: cells; format: functional, cell-based; details: Homo sapiens;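 also: growth inhibition of A172 cells, measured with a cell viability readout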
Description: SANGER: Inhibition of human A172 cell growth in a cell viability assay.

[42] = tested on: A2058; experiment: cells; format: functional, cell-based; details: Homo sapiens;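 also: reduction of A2058 cell growth, read out with a viability assay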
Description: SANGER: Inhibition of human A2058 cell growth in a cell viability assay.

[43] = tested on: ACHN; experiment: cells; format: functional, cell-based; details: Homo sapiens;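 also: cell viability read-out used to gauge how strongly growth of human ACHN cells is suppressed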
Description: SANGER: Inhibition of human ACHN cell growth in a cell viability assay.

[44] = tested on: BPH-1; experiment: cells; format: functional, cell-based; details: Homo sapiens;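 also: cell viability assay measuring growth inhibition of human BPH-1 cells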
Description: SANGER: Inhibition of human BPH-1 cell growth in a cell viability assay.

[45] = tested on: CAL-51; experiment: cells; format: functional, cell-based; details: Homo sapiens;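 also: human CAL-51 cell line, growth inhibition read out via a cell viability assay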
Description: SANGER: Inhibition of human CAL-51 cell growth in a cell viability assay.

[46] = tested on: CAL-85-1; experiment: cells; format: functional, cell-based; details: Homo sapiens;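 also: growth inhibition of human CAL-85-1 cells, read out with a cell viability assay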
Description: SANGER: Inhibition of human CAL-85-1 cell growth in a cell viability assay.

[47] = tested on: U-118-MG; experiment: cells; format: functional, cell-based; details: Homo sapiens
Description: SANGER: Inhibition of human U-118-MG cell growth in a cell viability assay.

[48] = tested on: COLO 205; experiment: cells; format: functional, cell-based; details: Homo sapiens
Description: SANGER: Inhibition of human COLO-205 cell growth in a cell viability assay.

COC(=O)[C@H](CCSC)NC(=O)c1ccc(NC[C@@H](N)CS)cc1-c1ccccc1
IC50 [1]: > 1.02 µM | IC50 [2]: > 1.02 µM | IC50 [3]: > 1.02 µM | IC50 [4]: > 1.02 µM | IC50 [5]: > 1.02 µM | IC50 [6]: > 1.02 µM | IC50 [7]: > 1.02 µM | IC50 [8]: > 1.02 µM | IC50 [9]: > 1.02 µM | IC50 [10]: > 1.02 µM | IC50 [11]: > 1.02 µM | IC50 [12]: > 1.02 µM | IC50 [13]: > 1.02 µM | IC50 [14]: > 1.02 µM | IC50 [15]: > 1.02 µM | IC50 [16]: > 1.02 µM | IC50 [17]: > 1.02 µM | IC50 [18]: > 1.02 µM | IC50 [19]: > 1.02 µM | IC50 [20]: > 1.02 µM | IC50 [21]: > 1.02 µM | IC50 [22]: > 1.02 µM | IC50 [23]: > 1.02 µM | IC50 [24]: > 1.02 µM | IC50 [25]: > 1.02 µM | IC50 [26]: > 1.02 µM | IC50 [27]: > 1.02 µM | IC50 [28]: > 1.02 µM | IC50 [29]: > 1.02 µM | IC50 [30]: > 1.02 µM | IC50 [31]: > 1.02 µM | IC50 [32]: > 1.02 µM | IC50 [33]: > 1.02 µM | IC50 [34]: > 1.02 µM | IC50 [35]: > 1.02 µM | IC50 [36]: > 1.02 µM | IC50 [37]: > 1.02 µM | IC50 [38]: > 1.02 µM | IC50 [39]: > 1.02 µM | IC50 [40]: > 1.02 µM | IC50 [41]: > 1.02 µM | IC50 [42]: > 1.02 µM | IC50 [43]: > 1.02 µM | IC50 [44]: > 1.02 µM | IC50 [45]: > 1.02 µM | IC50 [46]: > 1.02 µM | IC50 [47]: > 1.02 µM | IC50 [48]: > 1.02 µM

COc1ccc(-c2cc3nccn3c(Nc3ncccc3C(N)=O)n2)cc1OC
IC50 [1]: > 8 µM | IC50 [2]: > 8 µM | IC50 [3]: 1.98 µM | IC50 [4]: > 8 µM | IC50 [5]: > 8 µM | IC50 [6]: > 8 µM | IC50 [7]: > 8 µM | IC50 [8]: 4.53 µM | IC50 [9]: > 8 µM | IC50 [10]: 2.53 µM | IC50 [11]: 6.08 µM | IC50 [12]: > 8 µM | IC50 [13]: > 8 µM | IC50 [14]: > 8 µM | IC50 [15]: > 8 µM | IC50 [16]: 7.3 µM | IC50 [17]: 4.15 µM | IC50 [18]: > 8 µM | IC50 [19]: 4.86 µM | IC50 [20]: > 8 µM | IC50 [21]: > 8 µM | IC50 [22]: > 8 µM | IC50 [23]: > 8 µM | IC50 [24]: > 8 µM | IC50 [25]: > 8 µM | IC50 [26]: > 8 µM | IC50 [27]: 4.44 µM | IC50 [28]: > 8 µM | IC50 [29]: > 8 µM | IC50 [30]: > 8 µM | IC50 [31]: > 8 µM | IC50 [32]: > 8 µM | IC50 [33]: 6.56 µM | IC50 [34]: > 8 µM | IC50 [35]: > 8 µM | IC50 [36]: 5.06 µM | IC50 [37]: > 8 µM | IC50 [38]: > 8 µM | IC50 [39]: 3.23 µM | IC50 [40]: 7.3 µM | IC50 [41]: 2.22 µM | IC50 [42]: > 8 µM | IC50 [43]: 1.38 µM | IC50 [44]: 1.99 µM | IC50 [45]: 3.02 µM | IC50 [46]: 3.33 µM | IC50 [47]: 6.78 µM | IC50 [48]: 2.35 µM

OC[C@H](Cc1ccccc1)Nc1nc(Oc2ccc3c(c2)CCC3)nc2c1ncn2Cc1ccc(-c2ccccc2)cc1
IC50 [1]: > 10.2 µM | IC50 [2]: > 10.2 µM | IC50 [3]: > 10.2 µM | IC50 [4]: > 10.2 µM | IC50 [5]: > 10.2 µM | IC50 [6]: > 10.2 µM | IC50 [7]: > 10.2 µM | IC50 [8]: > 10.2 µM | IC50 [9]: > 10.2 µM | IC50 [10]: 8.45 µM | IC50 [11]: 3.1 µM | IC50 [12]: > 10.2 µM | IC50 [13]: > 10.2 µM | IC50 [14]: > 10.2 µM | IC50 [15]: > 10.2 µM | IC50 [16]: > 10.2 µM | IC50 [17]: > 10.2 µM | IC50 [18]: > 10.2 µM | IC50 [19]: > 10.2 µM | IC50 [20]: > 10.2 µM | IC50 [21]: > 10.2 µM | IC50 [22]: > 10.2 µM | IC50 [23]: > 10.2 µM | IC50 [24]: > 10.2 µM | IC50 [25]: 7.39 µM | IC50 [26]: > 10.2 µM | IC50 [27]: 3.89 µM | IC50 [28]: > 10.2 µM | IC50 [29]: > 10.2 µM | IC50 [30]: > 10.2 µM | IC50 [31]: > 10.2 µM | IC50 [32]: > 10.2 µM | IC50 [33]: > 10.2 µM | IC50 [34]: > 10.2 µM | IC50 [35]: > 10.2 µM | IC50 [36]: > 10.2 µM | IC50 [37]: 1.09 µM | IC50 [38]: > 10.2 µM | IC50 [39]: > 10.2 µM | IC50 [40]: > 10.2 µM | IC50 [41]: 6.16 µM | IC50 [42]: > 10.2 µM | IC50 [43]: > 10.2 µM | IC50 [44]: > 10.2 µM | IC50 [45]: 2.23 µM | IC50 [46]: 4.45 µM | IC50 [47]: > 10.2 µM | IC50 [48]: 2.29 µM
